According to patent US10583119B2, “Compounds, compositions and methods for making the same” (Signum Biosciences, Inc., priority 2008, dated 2020):

Tested on: JNPL3 transgenic mice
Test: Motor functions of JNPL3 transgenic mice (composite neuroscore)
Type: in vivo
Conditions: 0.1% diet
Procedure: The JNPL3 transgenic mouse line that carries the transgene for the human P301 L mutation of the microtubule-associated protein tau gene (MAPT) was used in this experiment (Lewis et al., 2000). 9-12 weeks old homozygous JNPL3 males (Laconic Farms, Hudson, N.Y.) were housed under standard conditions (temperature 22±2° C.; relative humidity 50±10%; 12 h light/12 h dark cycle) and allowed to acclimatize for 2 weeks. Following acclimatization, two groups of animals (6 animals per group) are changed to control diet (Research Diets; New Brunswick, N.J.) or purified 0.1% Compound I-63 formulated diet. The composite neuroscore (NS) was used as the scoring system to measure the following tasks: (1) forelimb flexion response during suspension by the tail, (2) righting and postural reflexes, and (3) prehensile traction test (Yoshiyama et al., 2005; Korenova et al., 2009). The neurological and motor examination included the basic reflex response by special attention to the assessment of the hind-limb escape extension reflex, the righting and postural reflexes and the prehensile traction test where the animal is allowed to grasp with its forepaws a horizontal cotton string (1 mm in diameter) suspended 70 cm above a padded surface. The scoring conditions were graded as follows:
2—Animal maintained forelimbs in scissored, clasped or dystonic position
Postural and Righting Reflex:
0—Animal could right when placed supine
1—Animal righting slowed (>ls)
Prehensile Traction Test:
0—Animal could complete test with at least 3 paws and tail within 2 min
1—Animal could hold on to string without falling within 2 min
2—Animal fell before 2 min without completion
3—Animal was unable to perform test
Each animal was scored using a scaling system ranging from 0-12 (normal), 13-20 (mild or early), 21-23 (moderate) and 24-30 (severe) to reflect serious impairment of neuromuscular functionality and muscular weakness. […]
Motor test scores vs. weeks of mice fed control diet (closed circles) and 0.1% Compound I-63 formulated diet (open circles). […]

## CCCCCCCCCCCCCCCCCCCC(=O)NCCc1c[nH]c2ccc(O)cc12 [Compound I-63, N-(2-(5-hydroxy-1H-indol-3-yl)ethyl)icosanamide]
After eleven weeks
  mean motor test scores less than mice on control diet: 75%
After ten weeks
  protection from developing motor dysfunction: protection of JNPL3 transgenic mice from developing motor dysfunction
After twelve weeks
  mean motor test scores less than mice on control diet: 75%
